Reference: patent US5707996A, “Pharmaceutical solution and methods for preparation thereof” (Macleod Pharmaceuticals, Inc., priority 1995, dated 1998)
Read-outs that look alike come from different tables or passages of the source.

Key:
[1] = cited from earlier work
[2] = test system: protozoal enzymes; details: versus host cells; cited from earlier work

| SMILES | solubility in water (in words) [1] | solubility in water ([1]; room temperature) | selectivity for inhibiting folate synthesis in protozoal enzymes [2] | solubility in 2-pyrrolidone (45° C.) | solubility in 2-pyrrolidone (room temperature) | solubility in NMP (NMP, room temperature) | solubility in acidic or basic aqueous medium (acidic or basic aqueous medium, room temperature) |
| --- | --- | --- | --- | --- | --- | --- | --- |
| Nc1ccc(S(=O)(=O)Nc2ncccn2)cc1 [Sodium sulfadiazine] | soluble in water |  |  |  |  |  |  |
| COc1cc(Cc2cnc(N)nc2N)cc(OC)c1OC [Trimethoprim, 5-[(3,4,5-trimethoxyphenyl)methyl]-2,4-pyrimidinediamine] | not soluble in water | about 0.04 g/100 ml | high selectivity | about 2.0 g/10 ml | about 0.4 g/10 ml | about 1.6 g/10 ml |  |
| Nc1ccc(S(=O)(=O)Nc2ncccn2)cc1 [sulfadiazine, 4-amino-N-2-pyrimidinylbenzenesulfonamide] |  |  |  |  |  |  | at least 2.3 g/10 ml |
